Measured values from PubChem BioAssay (NCI).
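Results reflect a 48-hour exposure of cells in 96-well plates to compound at five concentrations. Abbreviation: GI50, concentration required for 50% inhibition of growth. The concentration for full growth arrest is given as TGI.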

Columns and labels:
Test in all cases: DTP human tumour cell line panel, 48 h
786-0 renal = tested on: 786-0 renal
A498 renal = tested on: A498 renal
A549 NSCLC = tested on: A549 NSCLC
ACHN renal = tested on: ACHN renal
BT-549 breast = tested on: BT-549 breast
CAKI-1 renal = tested on: CAKI-1 renal
CCRF-CEM leukemia = tested on: CCRF-CEM leukemia
COLO 205 colon = tested on: COLO 205 colon
DU-145 prostate = tested on: DU-145 prostate
EKVX NSCLC = tested on: EKVX NSCLC
HCC-2998 colon = tested on: HCC-2998 colon
HCT-116 colon = tested on: HCT-116 colon
HCT-15 colon = tested on: HCT-15 colon
HL-60(TB) leukemia = tested on: HL-60(TB) leukemia
HOP-62 NSCLC = tested on: HOP-62 NSCLC
HOP-92 NSCLC = tested on: HOP-92 NSCLC
HS 578T breast = tested on: HS 578T breast
HT29 colon = tested on: HT29 colon
IGROV1 ovarian = tested on: IGROV1 ovarian
K-562 leukemia = tested on: K-562 leukemia
KM12 colon = tested on: KM12 colon
LOX IMVI melanoma = tested on: LOX IMVI melanoma
M14 melanoma = tested on: M14 melanoma
MALME-3M melanoma = tested on: MALME-3M melanoma
MCF7 breast = tested on: MCF7 breast
MDA-MB-231 breast = tested on: MDA-MB-231 breast
MDA-MB-435 = tested on: MDA-MB-435
MOLT-4 leukemia = tested on: MOLT-4 leukemia
NCI-H226 lung = tested on: NCI-H226 lung
NCI-H23 lung = tested on: NCI-H23 lung
NCI-H460 lung = tested on: NCI-H460 lung
NCI-H522 lung = tested on: NCI-H522 lung
NCI/ADR-RES ovarian = tested on: NCI/ADR-RES ovarian
OVCAR-3 ovarian = tested on: OVCAR-3 ovarian
OVCAR-4 ovarian = tested on: OVCAR-4 ovarian
OVCAR-5 ovarian = tested on: OVCAR-5 ovarian
OVCAR-8 ovarian = tested on: OVCAR-8 ovarian
PC-3 prostate = tested on: PC-3 prostate
RPMI-8226 leukemia = tested on: RPMI-8226 leukemia
RXF 393 renal = tested on: RXF 393 renal
SF-268 CNS = tested on: SF-268 CNS
SF-295 CNS = tested on: SF-295 CNS
SF-539 CNS = tested on: SF-539 CNS
SK-MEL-2 melanoma = tested on: SK-MEL-2 melanoma
SK-MEL-28 melanoma = tested on: SK-MEL-28 melanoma
SK-MEL-5 melanoma = tested on: SK-MEL-5 melanoma
SK-OV-3 ovarian = tested on: SK-OV-3 ovarian
SN12C renal = tested on: SN12C renal
SNB-19 CNS = tested on: SNB-19 CNS
SNB-75 CNS = tested on: SNB-75 CNS
SR leukemia = tested on: SR leukemia
SW-620 colon = tested on: SW-620 colon
T-47D breast = tested on: T-47D breast
TK-10 renal = tested on: TK-10 renal
U251 CNS = tested on: U251 CNS
UACC-62 melanoma = tested on: UACC-62 melanoma
UO-31 renal = tested on: UO-31 renal

## C[C@@H]1C[N+]2([O-])[C@H]3C4=CCC[C@@H]4CC[C@H]3[C@@]3(C)OC(=O)CC[C@]34CC[C@H]1[C@@H]42 (some centres undefined)
786-0 renal
  GI50: > 60 µM
  TGI: > 60 µM
A498 renal
  GI50: > 60 µM
  TGI: > 60 µM
A549 NSCLC
  GI50: > 60 µM
  TGI: > 60 µM
ACHN renal
  GI50: > 60 µM
  TGI: > 60 µM
BT-549 breast
  GI50: > 60 µM
  TGI: > 60 µM
CAKI-1 renal
  GI50: > 60 µM
  TGI: > 60 µM
CCRF-CEM leukemia
  GI50: > 60 µM
  TGI: > 60 µM
COLO 205 colon
  GI50: > 60 µM
  TGI: > 60 µM
DU-145 prostate
  GI50: > 60 µM
  TGI: > 60 µM
EKVX NSCLC
  GI50: > 60 µM
  TGI: > 60 µM
HCC-2998 colon
  GI50: > 60 µM
  TGI: > 60 µM
HCT-116 colon
  GI50: > 60 µM
  TGI: > 60 µM
HCT-15 colon
  GI50: > 60 µM
  TGI: > 60 µM
HL-60(TB) leukemia
  GI50: > 60 µM
  TGI: > 60 µM
HOP-62 NSCLC
  GI50: > 60 µM
  TGI: > 60 µM
HOP-92 NSCLC
  GI50: > 60 µM
  TGI: > 60 µM
HS 578T breast
  GI50: > 60 µM
  TGI: > 60 µM
HT29 colon
  GI50: > 60 µM
  TGI: > 60 µM
IGROV1 ovarian
  GI50: > 60 µM
  TGI: > 60 µM
K-562 leukemia
  GI50: > 60 µM
  TGI: > 60 µM
KM12 colon
  GI50: > 60 µM
  TGI: > 60 µM
LOX IMVI melanoma
  GI50: > 60 µM
  TGI: > 60 µM
M14 melanoma
  GI50: > 60 µM
  TGI: > 60 µM
MALME-3M melanoma
  GI50: > 60 µM
  TGI: > 60 µM
MCF7 breast
  GI50: > 60 µM
  TGI: > 60 µM
MDA-MB-231 breast
  GI50: > 60 µM
  TGI: > 60 µM
MDA-MB-435
  GI50: > 60 µM
  TGI: > 60 µM
MOLT-4 leukemia
  GI50: > 60 µM
  TGI: > 60 µM
NCI-H226 lung
  GI50: > 60 µM
  TGI: > 60 µM
NCI-H23 lung
  GI50: > 60 µM
  TGI: > 60 µM
NCI-H460 lung
  GI50: > 60 µM
  TGI: > 60 µM
NCI-H522 lung
  GI50: > 60 µM
  TGI: > 60 µM
NCI/ADR-RES ovarian
  GI50: > 60 µM
  TGI: > 60 µM
OVCAR-3 ovarian
  GI50: > 60 µM
  TGI: > 60 µM
OVCAR-4 ovarian
  GI50: > 60 µM
  TGI: > 60 µM
OVCAR-5 ovarian
  GI50: > 60 µM
  TGI: > 60 µM
OVCAR-8 ovarian
  GI50: > 60 µM
  TGI: > 60 µM
PC-3 prostate
  GI50: > 60 µM
  TGI: > 60 µM
RPMI-8226 leukemia
  GI50: > 60 µM
  TGI: > 60 µM
RXF 393 renal
  GI50: > 60 µM
  TGI: > 60 µM
SF-268 CNS
  GI50: > 60 µM
  TGI: > 60 µM
SF-295 CNS
  GI50: > 60 µM
  TGI: > 60 µM
SF-539 CNS
  GI50: > 60 µM
  TGI: > 60 µM
SK-MEL-2 melanoma
  GI50: > 60 µM
  TGI: > 60 µM
SK-MEL-28 melanoma
  GI50: > 60 µM
  TGI: > 60 µM
SK-MEL-5 melanoma
  GI50: > 60 µM
  TGI: > 60 µM
SK-OV-3 ovarian
  GI50: > 60 µM
  TGI: > 60 µM
SN12C renal
  GI50: > 60 µM
  TGI: > 60 µM
SNB-19 CNS
  GI50: > 60 µM
  TGI: > 60 µM
SNB-75 CNS
  GI50: > 60 µM
  TGI: > 60 µM
SR leukemia
  GI50: > 60 µM
  TGI: > 60 µM
SW-620 colon
  GI50: > 60 µM
  TGI: > 60 µM
T-47D breast
  GI50: > 60 µM
  TGI: > 60 µM
TK-10 renal
  GI50: > 60 µM
  TGI: > 60 µM
U251 CNS
  GI50: > 60 µM
  TGI: > 60 µM
UACC-62 melanoma
  GI50: > 60 µM
  TGI: > 60 µM
UO-31 renal
  GI50: > 60 µM
  TGI: > 60 µM
